Assay results from patent US20240308987A1, “SMALL MOLECULE INHIBITOR AGAINST NASOPHARYNGEAL CARCINOMA, PREPARATION METHOD AND APPLICATION THEREOF” (SHENZHEN BAY LABORATORY, priority 2021, published 2024).

Tested on: C666-1 cells
Assay: C666-1 Cell Viability Assay (Resazurin cytotoxicity test)
Type: cell-based
Settings: Homo sapiens, C6661, EB virus-positive C666-1 cells, 72 hours treatment, 100-0.78 micromole/L, read-out: Inhibitory Rate
Protocol: In order to evaluate the inhibitory effect of the small molecular compound of the present disclosure on EBNA1 at the cellular level, a cytotoxicity test was performed.
As mentioned in the Background of the present disclosure, nasopharyngeal carcinoma is a kind of disease highly associated with latent infection of EB virus. EB virus in latent state only expresses limited proteins to maintain its genome replication, among which EBNA1 protein is an essential functional protein. Studies have confirmed that inhibition of EBNA1 can reduce the proliferation of the corresponding nasopharyngeal carcinoma cells or kill them. Therefore, EB virus-positive nasopharyngeal carcinoma tumor cells (C666-1 cells) are selected for test to verify the effect of the small molecular compound of the present disclosure.
During testing, 100 microliters of different cell lines were inoculated onto a transparent 96-well plate, and 5×10^3 cells were inoculated in each well for C666-1 cells. After the cells were cultured in an incubator under […] at 37° C. for 24 hours, 10 microliters of compound with a concentration ranging from 1 mmol/L to 7.8 micromol/L were added to each well (8 points, double dilution, the final concentration was 100-0.78 micromole/L), and treated in the incubator under carbon dioxide at 37° C. for 72 hours. Cell viability was assessed using the redox indicator Resazurin. After addition of 10 microliters of 600 micromole/liter Resazurin to each well and incubation at 37° C. for 3 hours. Using a Tecan microplate reader, the fluorescence signals were detected at an […]. A software was used to fit the inhibition curve and calculate half-maximal effect concentration (EC50). The selectivity of compound activity was assessed by comparing the EC50 values of EB virus-positive and EB virus-negative cell lines.

Row | SMILES | EC50 [µM]
1 | COC(=O)c1cccc(N2CC(Oc3ccc(COc4cncnc4)cc3)C2)c1-n1cccc1 [Example 14, methyl 3-(3-(4-((pyrimidin-5-yloxy)methyl)phenoxy)azetidin-1-yl)-2-(1H-pyrrol-1-yl) benzoate] | 1 to 10
2 | O=C(Cc1cccnc1)Nc1ccc(OC2CN(c3cccc(C(=O)O)c3-n3cccc3)C2)cc1 [Example 51a, 3-(3-(4-(2-(pyridin-3-yl)acetamido)phenoxy)azetidin-1-yl)-2-(1H-pyrrol-1-yl) benzoic acid] | < 1
3 | COc1cncc(OCc2ccc(OC3CN(c4cccc(C(=O)O)c4-n4cccc4)C3)cc2)c1 [Example 6a, 3-(3-(4-(((5-methoxypyridin-3-yl)oxy)methyl)phenoxy)azetidin-1-yl)-2-(1H-pyrrol-1-yl) benzoic acid] | > 50
4 | O=C(Nc1ccc(OC2CN(c3cccc(C(=O)O)c3-c3cccc(Cl)c3)C2)cc1)Nc1cccnc1 [Example 41a, 3′-chloro-6-(3-(4-(3-(pyridin-3-yl)ureido)phenoxy)azetidin-1-yl)-[1,1′-biphenyl]-2-carboxylic acid] | 1 to 10
5 | O=C(O)c1cccc(N2CC(Oc3ccc(CNc4cccnc4)cc3)C2)c1-c1ccccc1 [Example 39a, 6-(3-(4-((pyridin-3-ylamino)methyl)phenoxy)azetidin-1-yl)-[1,1′-biphenyl]-2-carboxylic acid] | > 50
6 | O=C(Nc1ccc(OC2CN(c3cccc(C(=O)O)c3-n3cccc3)C2)cc1)c1cccnc1 [Example 31a, 3-(3-(4-(nicotinoamido)phenoxy)azetidin-1-yl)-2-(1H-pyrrol-1-yl) benzoic acid] | 10 to 50
7 | COC(=O)c1cccc(N2CC(Oc3cccc(COc4cccnc4)c3)C2)c1-n1cccc1 [Example 21, methyl 3-(3-(3-((pyridin-3-yloxy)methyl)phenoxy)azetidin-1-yl)-2-(1H-pyrrol-1-yl) benzoate] | 10 to 50
8 | O=C(Cc1ccc(OC2CN(c3cccc(C(=O)NO)c3-c3ccccc3)C2)cc1)Nc1cccnc1 [Example 40b, N-hydroxy-6-(3-(4-(2-oxo-2-(pyridin-3-ylamino)ethyl)phenoxy)azetidin-1-yl)-[1,1′-biphenyl]-2-carboxamide] | < 1
9 | COC(=O)c1cccc(N2CC(Oc3ccc(COc4ccc(C)nc4)cc3)C2)c1-n1cccc1 [Example 5, methyl 3-(3-(4-((6-methylpyridin-3-yloxy)methyl)phenoxy)azetidin-1-yl)-2-(1H-pyrrol-1-yl) benzoate] | > 50
10 | O=C(O)c1cccc(N2CC(Oc3ccc(/C=C/c4cccnc4)cc3)C2)c1-n1cccc1 [Example 28a, (E)-3-(3-(4-(2-(pyridin-3-yl)vinyl)phenoxy)azetidin-1-yl)-2-(1H-pyrrol-1-yl) benzoic acid] | 1 to 10
11 | COC(=O)c1cccc(N2CC(Oc3ccc(/C=C/c4cccnc4)cc3)C2)c1-n1cccc1 [Example 28, methyl (E)-3-(3-(4-(2-(pyridin-3-yl)vinyl)phenoxy)azetidin-1-yl)-2-(1H-pyrrol-1-yl) benzoate] | > 50
12 | COC(=O)c1cccc(N2CC(Oc3ccc(COc4cncc(OC)c4)cc3)C2)c1-n1cccc1 [Example 6, methyl 3-(3-(4-(((5-methoxypyridin-3-yl)oxy)methyl)phenoxy)azetidin-1-yl)-2-(1H-pyrrol-1-yl) benzoate] | > 50
13 | COC(=O)c1cccc(N2CC(Oc3ccc(NC(=O)Cc4cccnc4)c(F)c3)C2)c1-n1cccc1 [Example 52, methyl 3-(3-(3-fluoro-4-(2-(pyridin-3-yl)acetamido)phenoxy)azetidin-1-yl)-2-(1H-pyrrol-1-yl) benzoate] | < 1
14 | COC(=O)c1cccc(N2CC(Oc3ccc(N(C)C(=O)Nc4cccc(C#N)c4)cc3)C2)c1-n1cccc1 [Example 7, methyl 3-(3-(4-(3-(3-cyanophenyl)-1-methylureido)phenoxy)azetidin-1-yl)-2-(1H-pyrrol-1-yl) benzoate] | 10 to 50
15 | O=C(NO)c1cccc(N2CC(Oc3ccc(COCc4cccnc4)cc3)C2)c1-n1cccc1 [Example 27b, N-Hydroxy-3-(3-(4-((pyridin-3-ylmethoxy)methyl)phenoxy)azetidin-1-yl)-2-(1H-pyrrol-1-yl)benzamide] | < 1
16 | COC(=O)c1cccc(N2CC(Oc3ccc(COc4ccsn4)cc3)C2)c1-n1cccc1 [Example 33, methyl 3-(3-(4-((isothiazol-3-yloxy)methyl)phenoxy)azetidin-1-yl)-2-(1H-pyrrol-1-yl) benzoate] | > 50
17 | COC(=O)c1cccc(N2CC(Oc3ccc(COc4cncc(C)c4)cc3)C2)c1-n1cccc1 [Example 3, methyl 3-(3-(4-((5-methylpyridin-3-yloxy)methyl)phenoxy)azetidin-1-yl)-2-(1H-pyrrol-1-yl) benzoate] | > 50
18 | COC(=O)c1cccc(C#Cc2ccc(NC(=O)Nc3cccnc3)cc2)c1-c1cccc(O)c1 [Example 63, methyl 3′-hydroxyl-6-((4-(3-(pyridin-3-yl)ureido)phenyl)ethynyl)-[1,1′-biphenyl]-2-carboxylate] | < 1
19 | COC(=O)c1cccc(N2CC(Oc3ccc(/C=C/c4cccnc4)cc3)C2)c1-c1ccccc1 [Example 36, methyl (E)-6-(3-(4-(2-(pyridin-3-yl)vinyl)phenoxy)azetidin-1-yl)-[1,1′-biphenyl]-2-carboxylate] | 10 to 50
20 | O=C(Nc1ccc(C#Cc2cccc(C(=O)O)c2-c2ccc3cc[nH]c3c2)cc1)Nc1cccnc1 [Example 59a, 2-(1H-indol-6-yl)-3-((4-(3-(pyridin-3-yl)ureido)phenyl)ethynyl) benzoic acid] | < 1
21 | COC(=O)c1cccc(N2CC(Oc3ccc(COc4cnccn4)cc3)C2)c1-n1cccc1 [Example 13, methyl 3-(3-(4-((pyrazin-2-yloxy)methyl)phenoxy)azetidin-1-yl)-2-(1H-pyrrol-1-yl) benzoate] | > 50
22 | COC(=O)c1cccc(N2CC(Oc3ccc(COc4ccccn4)cc3)C2)c1-n1cccc1 [Example 12, methyl 3-(3-(4-((pyridin-2-yloxy)methyl)phenoxy)azetidin-1-yl)-2-(1H-pyrrol-1-yl) benzoate] | > 50
23 | COC(=O)c1cccc(N2CC(Oc3ccc(COc4cccs4)cc3)C2)c1-n1cccc1 [Example 30, methyl 2-(1H-pyrrol-1-yl)-3-(3-(4-((thiophen-2-yloxy)methyl)phenoxy)azetidin-1-yl) benzoate] | > 50
24 | O=C(Nc1ccc(OC2CN(c3cccc(C(=O)NO)c3-c3ccccc3)C2)cc1)Nc1cccnc1 [Example 42b, N-hydroxy-6-(3-(4-(3-(pyridin-3-yl)ureido)phenoxy)azetidin-1-yl)-[1,1′-biphenyl]-2-carboxamide] | < 1
25 | COC(=O)c1cccc(N2CC(Oc3ccc(COc4ccc(OC)nc4)cc3)C2)c1-n1cccc1 [Example 4, methyl 3-(3-(4-(((6-methoxypyridin-3-yl)oxy)methyl)phenoxy)azetidin-1-yl)-2-(1H-pyrrol-1-yl) benzoate] | > 50
26 | O=C(O)c1cccc(N2CC(Oc3ccc(CCc4cccnc4)cc3)C2)c1-n1cccc1 [Example 29a, 3-(3-(4-(2-(pyridin-3-yl)ethyl)phenoxy)azetidin-1-yl)-2-(1H-pyrrol-1-yl) benzoic acid] | > 50
27 | Cc1ccc(OCc2ccc(OC3CN(c4cccc(C(=O)O)c4-n4cccc4)C3)cc2)cn1 [Example 5a, 3-(3-(4-((6-methylpyridin-3-yloxy)methyl)phenoxy)azetidin-1-yl)-2-(1H-pyrrol-1-yl) benzoic acid] | > 50
